Source: patent publication US20210252015A1, “CERTAIN (2S)-N-[(1S)-1-CYANO-2-PHENYLETHYL]-1,4-OXAZEPANE-2-CARBOXAMIDES FOR TREATING INFLAMMATORY BOWEL DISEASE” (Insmed Incorporated, priority 2018, published 2021)

Key:
Format in all cases: in vivo
[1] = tested on: DSS-induced colitis in C57BL/6 mice; assay: DSS-induced colitis murine study, Example 1A (endoscopy, stool consistency, body weight); conditions: for mean endoscopy score: INS1007 1 mg/kg PO BID Day -7 to 20, scale 0-4
Experimental: (§1) Mice: Seventy-nine (79) male C57BL/6 mice with an average starting body weight (SEM) of 23.32 g (+1.53 g) were obtained from Charles River Laboratories (Wilmington, Mass.). Animals were acclimatized prior to the study. During this period, the animals were observed daily in order to reject any that presented in poor condition. Animals were fed with 5053 sterile rodent diet and water was provided ad libitum.
INS1007 Solutions: INS1007 was diluted with 0.5% hydroxypropylmethylcellulose in citrate buffer w/0.1% Tween 80 (pH 3.0). Solutions were stored at 4° C. INS1007 solutions were discarded after 3 days and fresh solutions were prepared.
Anti-p40 mAb solution: Anti-mouse IL-12 p40 (Clone: C17.8) obtained from BioXCell (Cat #: BE0051) was diluted with phosphate buffered saline. Solutions were stored at 4° C. Anti-mouse IL-12 p40 solutions were discarded after 7 days and fresh solutions were prepared.
DSS Induction Solution: Dextran sulfate sodium salt obtained from MP Biomedical (Cat #02160110) was diluted with water. DSS solutions were stored at room temperature.
Groups 1-4 were negative controls; groups 5-7 were treated with INS 1007 and Group 8 was treated with Anti-p40 mAb. ^i The dosing protocol for the Anti-p40 antibody is not shown in FIG. 1.
The study included three phases: a pre-treatment period (Veh/1007 Pretx in FIG. 1); DSS-induction period (DSS in FIG. 1) and a treatment period (Veh/1007 in FIG. 1). Colitis was induced in Groups 3-8 by exposure to 3% DSS Induction Solution from Day 0 to Day 5. Animals in Groups 2 and 4-7 were dosed via oral gavage (PO) twice daily (BID) from Days −7 to 20 with INS1007 Solution or vehicle, as indicated in Table 1. Animals in Group 8 were dosed via intraperitoneal (IP) injection once every third day (Q3D) from Day 0 to 18 with Anti-p40 mAb solution.
All animals were weighed daily and assessed visually for the presence of diarrhea and/or bloody stool at the time of dosing. Each mouse, under isoflurane anesthesia, underwent video endoscopy on Days 10, 14, & 21 using a small animal endoscope (Karl Storz Endoskope, Germany), to assess colitis severity. Colitis severity was scored using a 0-4 scale (0=normal; 1=loss of vascularity; 2=loss of vascularity and friability; 3=friability and erosions; 4=ulcerations and bleeding). Stool consistency was scored during endoscopy using the parameters defined in Table 2. Following endoscopy on day 21, all animals from each treatment group were sacrificed.

[2] = tested on: DSS-induced colitis in C57BL/6 mice; assay: DSS-induced colitis model, mean over animals of Examples 1A and 1B; conditions: vs vehicle control
Experimental: Mean Endoscopy/Stool Consistency Scores and Mean Weight Change: The mean of the endoscopy and stool consistency scores from Days 10 and 14 observed from Examples 1A and 1B was determined to provide a mean endoscopy score and mean stool consistency score for Days 10 and 14 in the DSS-induced colitis model (i.e., mean that includes the animals from Examples 1A and 1B). FIGS. 11A and 12A show the Mean Endoscopy score. FIGS. 11B and 12B show the Mean Stool Consistency score.
The percent change in body weight on Day 14 from Examples 1A and 1B were averaged to provide mean percent body weight change for Day 14 in the DSS-induced colitis model (i.e., mean that includes the animals from Examples 1A and 1B).

[3] = tested on: DSS-induced colitis in C57BL/6 mice; assay: DSS-induced colitis murine study, Example 1B (endoscopy, stool consistency, body weight)
From the text: as §1, with “Ninety-five (95)” for “Seventy-nine (79)”, “20.6” for “23.32”, “(+0.16” for “(+1.53”
Solutions: The INS1007 Solution, Anti-p40 mAb solution and DSS Induction Solution were prepared and stored as described in Example 1A. […]
All animals were weighed daily and assessed visually for the presence of diarrhea and/or bloody stool at the time of dosing. […] Colitis severity was scored using the scale described in Example 1A. Stool consistency was scored during endoscopy using the parameters defined in Table 2. […]
Animals underwent endoscopy on Days 10 and 14, in order to assess colonic inflammation. Colitis was scored visually on a five-point scale using the method described in Example 1A. Stool consistency was scored visually on a five-point scale using the method described in Example 1A. […]
To determine the statistical significance of overall differences in mean percent body weight change between groups, the area under the curve (AUC) was calculated using the trapezoidal rule transformation and is shown in the FIG. 9.

## Cn1c(=O)oc2ccc(-c3ccc(C[C@@H](C#N)NC(=O)[C@@H]4CNCCCO4)cc3)cc21 [INS1007, (2S)—N-{(1S)-1-cyano-2-[4-(3-methyl-2-oxo-2,3-dihydro-1,3-benzoxazol-5-yl)phenyl]ethyl}-1,4-oxazepane-2-carboxamide]
[1]; Day 10, DSS-Vehicle control 2.67
  mean endoscopy score: 2.25
[1]; Day 14, DSS-Vehicle control 2.79
  mean endoscopy score: 1.92
[1]; Day 21, DSS-Vehicle control 2.36
  mean endoscopy score: 2.08
[1]; INS1007 PO BID, vs DSS-vehicle control (peak loss -18.46% Day 11)
  weight loss (percentage of starting weight on Day 0): modestly attenuated weight loss
[1]; INS1007 at all three concentrations (0.1, 1, 10 mg/kg PO BID), Days 10, 14, 21, particularly Days 14 and 21
  stool consistency scores: modest decreases in stool scores
[2]; Day 10, 0.3 mg/kg
  mean endoscopy score (Examples 1A and 1B): significantly reduced
  mean stool consistency score (Examples 1A and 1B): significantly reduced
[2]; Day 10, 3 mg/kg
  mean endoscopy score (Examples 1A and 1B): significantly reduced
[2]; Day 14, 0.3 mg/kg
  average mean endoscopy score (Examples 1A and 1B): significantly reduced
[2]; Day 14, 0.3 mg/kg, lost less weight
  average mean weight change (percent body weight change, Examples 1A and 1B): significantly reduced
[2]; Day 14, 3 mg/kg
  stool consistency score (Examples 1A and 1B): significantly reduced
[3]; Day 14, INS1007 0.3 mg/kg PO BID (Group 3), vs vehicle control (Group 2)
  mean endoscopy score: reduced
[3]; INS1007 1 mg/kg PO BID (Group 4), vs Group 2 (3% DSS+vehicle)
  body weight loss (AUC, calculated based on Day -7): significantly decreased
